Experimental data taken from ChEMBL document CHEMBL3856182, “How much successful are the medicinal chemists in modulation of SIRT1: A critical review” (Eur J Med Chem, 2016).

How the values were obtained:
[1] = target: T1, NAD-dependent protein deacetylase sirtuin-1 (Homo sapiens, UniProt Q96EB6); assay: Inhibition of recombinant human SIRT1 assessed as deacetylation activity using fluorescent substrate in presence of NAD+ by fluorescence analysis
T1 sequence (Q96EB6 whole entry): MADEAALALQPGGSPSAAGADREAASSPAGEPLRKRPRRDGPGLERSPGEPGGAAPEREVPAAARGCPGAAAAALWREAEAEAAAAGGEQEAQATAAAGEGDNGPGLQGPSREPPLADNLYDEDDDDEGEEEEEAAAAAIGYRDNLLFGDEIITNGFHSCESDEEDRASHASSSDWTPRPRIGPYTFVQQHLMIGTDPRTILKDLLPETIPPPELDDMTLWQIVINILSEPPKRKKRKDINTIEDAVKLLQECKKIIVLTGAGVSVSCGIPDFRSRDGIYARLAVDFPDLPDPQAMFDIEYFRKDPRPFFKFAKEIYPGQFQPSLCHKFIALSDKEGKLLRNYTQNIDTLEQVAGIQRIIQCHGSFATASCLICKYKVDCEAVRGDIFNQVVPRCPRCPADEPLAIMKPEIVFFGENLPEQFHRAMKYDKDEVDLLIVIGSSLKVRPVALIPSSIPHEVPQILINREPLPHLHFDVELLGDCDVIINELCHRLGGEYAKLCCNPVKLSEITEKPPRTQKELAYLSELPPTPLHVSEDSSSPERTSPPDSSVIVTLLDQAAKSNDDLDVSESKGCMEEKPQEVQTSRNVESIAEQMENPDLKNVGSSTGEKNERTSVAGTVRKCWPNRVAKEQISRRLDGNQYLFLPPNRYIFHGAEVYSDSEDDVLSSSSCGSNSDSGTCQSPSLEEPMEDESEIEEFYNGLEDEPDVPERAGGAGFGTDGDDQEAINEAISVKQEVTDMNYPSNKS

[2] = target: T2, NAD-dependent protein deacetylase sirtuin-2 (Homo sapiens, UniProt Q8IXJ6); assay: Inhibition of recombinant human SIRT2 assessed as deacetylation activity using fluorescent substrate in presence of NAD+ by fluorescence analysis
T2 sequence (Q8IXJ6 whole entry): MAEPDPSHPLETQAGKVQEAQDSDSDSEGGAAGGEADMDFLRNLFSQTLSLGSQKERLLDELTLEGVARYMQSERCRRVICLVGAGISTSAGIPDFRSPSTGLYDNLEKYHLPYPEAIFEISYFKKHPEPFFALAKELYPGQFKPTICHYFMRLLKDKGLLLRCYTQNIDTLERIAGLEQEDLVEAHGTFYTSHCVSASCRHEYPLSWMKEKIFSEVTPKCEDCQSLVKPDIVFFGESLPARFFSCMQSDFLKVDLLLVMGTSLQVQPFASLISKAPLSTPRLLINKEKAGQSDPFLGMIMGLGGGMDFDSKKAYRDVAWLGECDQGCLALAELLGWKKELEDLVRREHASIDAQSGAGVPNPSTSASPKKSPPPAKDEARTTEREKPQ

[3] = target: T2, NAD-dependent protein deacetylase sirtuin-2; assay: Noncompetitive inhibition of human SIRT2 assessed as deacetylation activity using fluorescent substrate in presence of NAD+ by Lineweaver-Burk plot analysis
[4] = target: T2, NAD-dependent protein deacetylase sirtuin-2; assay: Competitive inhibition of human SIRT2 assessed as deacetylation activity using fluorescent peptide substrate in presence of NAD+ by Lineweaver-Burk plot analysis
[5] = target: T1, NAD-dependent protein deacetylase sirtuin-1; assay: Inhibition of human SIRT1 using biotinylated peptide with an acetylated FLAG sequence as substrate measured after 3 hr in presence of NAD+ by TR-FRET assay
[6] = target: T2, NAD-dependent protein deacetylase sirtuin-2; assay: Inhibition of human SIRT2 using biotin labeled histone H4 peptide with an acetylated lysine 4 as substrate measured after 1 hr by luminescence analysis
[7] = Oral bioavailability in human at 50 uCi up to 12 hrs using 14C-labeled compound by scintillation counting method; type: ADME, organism-based; conditions: in vivo
[8] = Drug absorption in human at 50 uCi, po up to 12 hrs using 14C-labeled compound by scintillation counting method; type: ADME, organism-based; conditions: in vivo
[9] = Oral bioavailability in rat at 50 or 150 mg/kg/day administered through gavage for 14 consecutive days by HPLC analysis; type: ADME, organism-based; conditions: in vivo
[10] = target: T1, NAD-dependent protein deacetylase sirtuin-1; assay: Inhibition of recombinant human GST-tagged SIRT1 overexpressed in Escherichia coli DH5alpha assessed as deacetylation activity using [3H]-MPSDKTIGG as substrate measured after overnight incubation by liquid scintillation counting method
[11] = target: T2, NAD-dependent protein deacetylase sirtuin-2; assay: Inhibition of recombinant human GST-tagged SIRT2 overexpressed in Escherichia coli DH5alpha assessed as deacetylation activity using [3H]-MPSDKTIGG as substrate measured after overnight incubation by liquid scintillation counting method
[12] = Cytotoxicity in human LNCAP cells assessed as growth inhibition measured after 48 hrs by MTT assay; type: functional
[13] = Cytotoxicity in human Caco2 cells assessed as growth inhibition measured after 48 hrs by MTT assay; type: functional; conditions: Caco-2, 48 h
[14] = Cytotoxicity in human U937 cells assessed as growth inhibition measured after 48 hrs by MTT assay; type: functional; conditions: U-937, 48 h
[15] = Cytotoxicity in HEK293 cells assessed as growth inhibition measured after 48 hrs by MTT assay; type: toxicity, cell-based; conditions: human
[16] = target: T1, NAD-dependent protein deacetylase sirtuin-1; assay: Inhibition of human SIRT1 assessed as deacetylation activity preincubated with protein followed by addition of AMC-tagged Arg-His-Lys-Lys(Ac) (379 to 382 residues) as substrate measured after 45 mins in presence of NAD+ by fluorescence assay
[17] = Cytotoxicity in human MDA-MB-231 cells assessed as growth inhibition measured after 48 hrs by MTT assay; type: functional; conditions: MDA-MB-231, 48 h
[18] = target: NAD-dependent histone deacetylase SIR2 (Saccharomyces cerevisiae S288c, UniProt P06700); assay: Non-competitive inhibition of recombinant yeast glutathione-S-transferase-tagged SIRT2 using acetylated histone as substrate measured after 30 mins by fluorimetric analysis
Sequence of NAD-dependent histone deacetylase SIR2 (P06700 whole entry): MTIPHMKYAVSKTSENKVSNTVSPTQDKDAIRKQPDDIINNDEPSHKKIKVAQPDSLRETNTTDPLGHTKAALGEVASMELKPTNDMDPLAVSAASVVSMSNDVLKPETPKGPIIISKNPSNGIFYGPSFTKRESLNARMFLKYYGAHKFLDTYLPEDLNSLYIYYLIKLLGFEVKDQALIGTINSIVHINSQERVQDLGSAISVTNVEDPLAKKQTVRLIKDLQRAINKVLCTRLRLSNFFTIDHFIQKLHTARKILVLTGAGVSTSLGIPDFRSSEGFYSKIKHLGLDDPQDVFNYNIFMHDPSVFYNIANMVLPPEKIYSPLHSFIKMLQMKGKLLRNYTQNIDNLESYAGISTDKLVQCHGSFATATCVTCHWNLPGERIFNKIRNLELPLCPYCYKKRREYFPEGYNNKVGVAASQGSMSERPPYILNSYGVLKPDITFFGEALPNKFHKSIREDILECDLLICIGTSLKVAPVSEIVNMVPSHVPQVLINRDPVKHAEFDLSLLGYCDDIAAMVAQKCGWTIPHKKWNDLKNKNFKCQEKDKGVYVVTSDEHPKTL

[19] = target: T3, NAD-dependent protein deacetylase sirtuin-1 (Homo sapiens) (UniProt Q96EB6); assay: Activation of recombinant human SIRT1 using TPE-GK(Ac)YDD as substrate at 50 uM by fluorescence assay relative to control
T3 sequence (whole entry): T1 sequence (Q96EB6 whole entry)

[20] = target: T1, NAD-dependent protein deacetylase sirtuin-1; assay: Inhibition of SIRT1 (unknown origin) using acetylated lysine as substrate by Fluor de Lys assay
[21] = target: T1, NAD-dependent protein deacetylase sirtuin-1; assay: Inhibition of full-length human N-terminal GST-tagged SIRT1 expressed in Escherichia coli BL21 (DE3) assessed as inhibition of deacetylase activity using ZMAL as substrate measured after 4 hrs by Fluor de Lys assay
[22] = target: T2, NAD-dependent protein deacetylase sirtuin-2; assay: Inhibition of full-length human N-terminal His6-tagged SIRT2 expressed in Escherichia coli BL21 (DE3) assessed as inhibition of deacetylase activity using ZMAL as substrate measured after 4 hrs by Fluor de Lys assay
[23] = target: T2, NAD-dependent protein deacetylase sirtuin-2; assay: Inhibition of human N-terminal 6His-tagged SIRT2 assessed as inhibition of deacetylase activity using ZMAL as substrate measured after 4 hrs by Fluor de Lys assay
[24] = target: T1, NAD-dependent protein deacetylase sirtuin-1; assay: Inhibition of recombinant human SIRT1 assessed as inhibition of deacetylase activity using ZMAL as substrate measured after 4 hrs by Fluor de Lys assay
[25] = target: T1, NAD-dependent protein deacetylase sirtuin-1; assay: Activation of recombinant human SIRT1 assessed as increase in deacetylation of Fluor de Lys-SIRT1-specific substrate after 2 hrs by HTS assay
Saccharomyces cerevisiae = assay: Growth inhibition of yeast

## O=C(/C=C/c1ccc(O)c(O)c1)NC(Cc1c[nH]c2ccccc12)C(=O)O (centres undefined)
[1]
  IC50: 34 µM
[2]
  IC50: 8.7 µM
[3]
  Ki: 9.8 µM
[4]
  Ki: 5.3 µM

## Cc1ccc(-c2nc3c(=O)n(C)c(=O)nc-3n(C)n2)cc1
[5]
  IC50: 0.11 µM
[6]
  IC50: > 100 µM

## Oc1ccc(/C=C/c2cc(O)cc(O)c2)cc1 [RESVERATROL]
[7]
  F: 0.5%
[8]
  Fabs: 70%
[9]
  bioavailability: 20%

## CC(C)=CCC/C(C)=C/C[C@@H]1C[C@]2(CC=C(C)C)C(=O)[C@@](CC=C(C)C)(C(=O)C(Cc3ccc(O)c(O)c3)=C2O)[C@@]1(C)CCC=C(C)C
[10]
  IC50: 9 µM
[11]
  IC50: 22 µM

## N#CC1=C(N)NC(SCC(=O)c2ccc(O)c(O)c2)=C(C#N)C1=C1C=CC(=O)C=C1
[12]
  GI50: < 1 µM
[13]
  GI50: < 1 µM
[14]
  GI50: < 1 µM
[15]
  GI50 at 48 h: < 1 µM
[16]
  IC50: 16.4 µM
[17]
  GI50: < 1 µM

## NC(=O)c1cccnc1 [NIACINAMIDE]
[18]
  IC50: < 50 µM

## COc1cc2c(c(OC)c1OC)-c1c(cc(OC)c(OC)c1OC)C[C@H](C)[C@H](C)C2
[19]
  Activity: 28%

## NC(=O)c1ccccc1Oc1ccccc1
[20]
  IC50: > 100 µM

## CC(C)=CCC[C@](C)(O[C@@H]1O[C@H](CO[C@@H]2O[C@@H](CO)[C@H](O)[C@H]2O)[C@@H](O)[C@H](O)[C@H]1O)[C@H]1CC[C@]2(C)[C@@H]1[C@H](O)C[C@@H]1[C@@]3(C)CC[C@H](O[C@@H]4O[C@H](CO)[C@@H](O)[C@H](O)[C@H]4O[C@@H]4O[C@H](CO)[C@@H](O)[C@H](O)[C@H]4O)C(C)(C)[C@@H]3CC[C@]12C
[19]
  Activity: 88%

## Nc1cc(NC(=O)Nc2cccc(C(=O)Nc3cccc(C(=O)Nc4ccc(S(=O)(=O)O)c5cc(S(=O)(=O)O)cc(S(=O)(=O)O)c45)c3)c2)cc(C(=O)Nc2cccc(C(=O)Nc3ccc(S(=O)(=O)O)c4cc(S(=O)(=O)O)cc(S(=O)(=O)O)c34)c2)c1
[21]
  IC50: 0.093 µM
[22]
  IC50: 2.26 µM

## O=C1CC(=S)NC(=O)/C1=C/c1cc2ccccc2[nH]1
[23]
  IC50: < 20.3 µM
[24]
  IC50: 5.9 µM

## CC1=CCC(C(=O)/N=C2\CC=C(S(=O)(=O)O)c3cc(S(=O)(=O)O)cc(S(=O)(=O)O)c32)=C/C1=N/C(=O)C1=CC=C/C(=N\C(=O)/N=C2\C=CC=C(C(=O)/N=C3/CC(C(=O)/N=C4\CC=C(S(=O)(=O)O)c5cc(S(=O)(=O)O)cc(S(=O)(=O)O)c54)=CC=C3C)C2)C1
[22]
  IC50: 1.15 µM

## COCCCn1c(N)c(C(=O)NC2CCCC2)c2nc3ccccc3nc21
[25]
  EC50: < 1 µM

## CN(C)CCCCC(=O)Nc1ccc(NC(=S)NC(=O)c2ccc(C(C)(C)C)cc2)cc1
Saccharomyces cerevisiae
  IC50: 30 µM

## NC(=O)c1cccc(Nc2ccccc2)c1
[20]
  IC50: > 100 µM
